For the test, the target named is PARP7 (Homo sapiens (Human), UniProt Q7Z3E1). Briefly: In vitro enzymology experiment of PARP7 (enzymatic inhibition). It counts as biochemical. The gist of the method: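 Histone-coated plate ADP-ribosylation format: compound preincubated 10 min at room temperature with preincubated (25 °C, 10 min) enzyme mixture; incorporated biotin detected by streptavidin-HRP and QuantaRed fluorescence (Ex550/Em620).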

Structures are written as SMILES.

Chain of PARP7 (Q7Z3E1 whole entry): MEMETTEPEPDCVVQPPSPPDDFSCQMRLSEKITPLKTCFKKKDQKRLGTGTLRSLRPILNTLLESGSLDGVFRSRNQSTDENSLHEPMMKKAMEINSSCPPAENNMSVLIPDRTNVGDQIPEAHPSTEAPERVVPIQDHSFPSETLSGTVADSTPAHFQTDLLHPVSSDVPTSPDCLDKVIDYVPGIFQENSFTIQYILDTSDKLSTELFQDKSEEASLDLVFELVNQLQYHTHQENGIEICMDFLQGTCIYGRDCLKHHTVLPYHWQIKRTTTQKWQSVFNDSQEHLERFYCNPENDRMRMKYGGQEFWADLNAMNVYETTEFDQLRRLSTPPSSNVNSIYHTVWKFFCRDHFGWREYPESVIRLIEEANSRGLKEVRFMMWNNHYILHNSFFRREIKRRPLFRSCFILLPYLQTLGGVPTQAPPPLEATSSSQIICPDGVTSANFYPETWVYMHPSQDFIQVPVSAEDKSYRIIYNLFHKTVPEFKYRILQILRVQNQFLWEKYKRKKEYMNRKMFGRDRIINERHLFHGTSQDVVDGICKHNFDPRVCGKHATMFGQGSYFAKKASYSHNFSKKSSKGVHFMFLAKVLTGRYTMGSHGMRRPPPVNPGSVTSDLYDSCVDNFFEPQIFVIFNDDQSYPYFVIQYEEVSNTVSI

Broadly, the IC50 is the concentration at which inhibition is half-maximal. The compound `C[C@@H]1CN(c2ncc(C(F)(F)F)cn2)[C@H](C)CN1C(=O)O[C@@H](C)Cc1c[nH]c(=O)c(C(F)(F)F)c1` [Example 161, (S)-1-(6-Oxo-5-(trifluoromethyl)-1,6-dihydropyridin-3-yl)propan-2-yl (2R,5R)-2,5-dimethyl-4-(5-(trifluoromethyl)pyrimidin-2-yl)piperazine-1-carboxylate] displayed an IC50 of 910 pM.

Consider `C[C@@H](Cc1c[nH]c(=O)c(C(F)(F)F)c1)OC(=O)N1CC2CN(c3ncc(C(F)(F)F)cn3)CC2C1` (stereo partly drawn) [Example 77, (S)-1-(6-Oxo-5-(trifluoromethyl)-1,6-dihydropyridin-3-yl)propan-2-yl 5-(5-(trifluoromethyl)pyrimidin-2-yl) hexahydropyrrolo[3,4-c]pyrrole-2(1H)-carboxylate], for which half-maximal inhibition (IC50) required 2150 pM.

In turn, `C[C@@H](COC(=O)N1CCN(c2ncc(C(F)(F)F)cn2)CC1)c1c[nH]c(=O)c(C(F)(F)F)c1` [Example 27] returned a 50% inhibitory concentration (IC50) of 1100 pM.

The compound `Cc1[nH]c(=O)c(C(F)(F)F)cc1C[C@H](C)OC(=O)N1CCN(c2ncc(C(F)(F)F)cn2)CC1` [Example 133, (S)-1-(2-Methyl-6-oxo-5-(trifluoromethyl)-1,6-dihydropyridin-3-yl)propan-2-yl 4-(5-(trifluoromethyl)pyrimidin-2-yl)piperazine-1-carboxylate] gave a concentration for half-maximal inhibition (IC50) of 760 pM.

Turning to `O=C(OCCc1c[nH]c(=O)c(C(F)(F)F)c1)N1CC2CCC(C1)N2c1ncc(C(F)(F)F)cn1` [Example 125, 2-(6-Oxo-5-(trifluoromethyl)-1,6-dihydropyridin-3-yl)ethyl 8-(5-(trifluoromethyl)pyrimidin-2-yl)-3,8-diazabicyclo[3.2.1]octane-3-carboxylate], inhibition was half-maximal at 710 pM (IC50).

`Cc1c(C[C@H](C)OC(=O)N2CCN(c3ncc(C(F)(F)F)cn3)CC2)c[nH]c(=O)c1C(F)(F)F` [Example 81, (S)-1-(4-Methyl-6-oxo-5-(trifluoromethyl)-1,6-dihydropyridin-3-yl)propan-2-yl 4-(5-(trifluoromethyl)pyrimidin-2-yl)piperazine-1-carboxylate]: the IC50 was determined as 750 pM.

As to `Cc1cnc(N2CCN(C(=O)OCCc3c[nH]c(=O)c(C(F)(F)F)c3)CC2)nc1` [Example 105], the IC50 was 920 pM.

Compound `Cc1cnc(N2C[C@H](C)N(C(=O)O[C@@H](C)Cc3c[nH]c(=O)c(C(F)(F)F)c3)C[C@H]2C)nc1` [Example 170, (S)-1-(6-Oxo-5-(trifluoromethyl)-1,6-dihydropyridin-3-yl)propan-2-yl (2S,5R)-2,5-dimethyl-4-(5-methylpyrimidin-2-yl)piperazine-1-carboxylate] yielded a concentration for half-maximal inhibition (IC50) of 870 pM.

Regarding `C[C@@H]1CN(C(=O)OCCc2c[nH]c(=O)c(C(F)(F)F)c2)C[C@H](C)N1c1ncc(C(F)(F)F)cn1` [Example 153, 2-(6-Oxo-5-(trifluoromethyl)-1,6-dihydropyridin-3-yl)ethyl (3R,5S)-3,5-dimethyl-4-(5-(trifluoromethyl)pyrimidin-2-yl)piperazine-1-carboxylate], the IC50 was 650 pM.

As for `C[C@@H]1CN(c2ncc(C(F)(F)F)cn2)C[C@@H](C)N1C(=O)OCCc1c[nH]c(=O)c(C(F)(F)F)c1` [Example 148, 2-(6-Oxo-5-(trifluoromethyl)-1,6-dihydropyridin-3-yl)ethyl (2R,6R)-2,6-dimethyl-4-(5-(trifluoromethyl)pyrimidin-2-yl)piperazine-1-carboxylate], the 50% inhibitory concentration (IC50) was determined as 770 pM.

With `O=C(OCCc1c[nH]c(=O)c(C(F)(F)F)c1)N1CCN(c2ncc(C3CC3)cn2)CC1` [Example 152, 2-(6-Oxo-5-(trifluoromethyl)-1,6-dihydropyridin-3-yl)ethyl 4-(5-cyclopropylpyrimidin-2-yl)piperazine-1-carboxylate], the concentration for half-maximal inhibition (IC50) came to 760 pM.

For `O=C(Oc1ccc(F)c(-c2c[nH]c(=O)c(C(F)(F)F)c2)c1)N1CCN(c2ncc(C(F)(F)F)cn2)CC1` [Example 139, 4-Fluoro-3-(6-oxo-5-(trifluoromethyl)-1,6-dihydropyridin-3-yl)phenyl 4-(5-(trifluoromethyl)pyrimidin-2-yl)piperazine-1-carboxylate], the IC50 came to 900 pM.

With `CC(=O)c1cnc(N2CCN(C(=O)O[C@@H](C)Cc3c[nH]c(=O)c(C(F)(F)F)c3)CC2)nc1` [Example 120, (S)-1-(6-Oxo-5-(trifluoromethyl)-1,6-dihydropyridin-3-yl)propan-2-yl 4-(5-acetylpyrimidin-2-yl)piperazine-1-carboxylate], the concentration for half-maximal inhibition (IC50) was found to be 660 pM.

Consider `O=C(OC[C@H]1CCCN1c1c[nH]c(=O)c(C(F)(F)F)c1)N1CCN(c2ncc(C(F)(F)F)cn2)CC1` [Example 36, (R)-(1-(6-Oxo-5-(trifluoromethyl)-1,6-dihydropyridin-3-yl)pyrrolidin-2-yl)methyl 4-(5-(trifluoromethyl)pyrimidin-2-yl)piperazine-1-carboxylate], for which the IC50 stood at 380 pM.

`O=C(Oc1ccccc1-c1c[nH]c(=O)c(C(F)(F)F)c1)N1CCN(c2ncc(C(F)(F)F)cn2)CC1` [Example 134, 2-(6-Oxo-5-(trifluoromethyl)-1,6-dihydropyridin-3-yl)phenyl 4-(5-(trifluoromethyl)pyrimidin-2-yl)piperazine-1-carboxylate] yielded an IC50 of 1920 pM.

`C[C@@H](Cc1c[nH]c(=O)c(C(F)(F)F)c1)OC(=O)N1CCN(c2ncc(C(F)(F)F)cn2)C[C@@H]1C` [Example 92, (S)-1-(6-Oxo-5-(trifluoromethyl)-1,6-dihydropyridin-3-yl)propan-2-yl (S)-2-methyl-4-(5-(trifluoromethyl)pyrimidin-2-yl)piperazine-1-carboxylate] came in with an IC50 of 190 pM.

As for `O=C(OCCc1c[nH]c(=O)c(C(F)(F)F)c1)N1CCN(c2ncc(C(F)(F)F)cn2)[C@@H](CO)C1` [Example 104, 2-(6-Oxo-5-(trifluoromethyl)-1,6-dihydropyridin-3-yl)ethyl (R)-3-(hydroxymethyl)-4-(5-(trifluoromethyl)pyrimidin-2-yl)piperazine-1-carboxylate], inhibition was half-maximal at 530 pM (IC50).

As to `C[C@@H]1CN(c2ncc(C(F)(F)F)cn2)C[C@@H](C)N1C(=O)O[C@@H](C)Cc1c[nH]c(=O)c(C(F)(F)F)c1` [Example 158, (S)-1-(6-Oxo-5-(trifluoromethyl)-1,6-dihydropyridin-3-yl)propan-2-yl (2R,6R)-2,6-dimethyl-4-(5-(trifluoromethyl)pyrimidin-2-yl)piperazine-1-carboxylate], the IC50 is 5000 pM.

For the compound `O=C(CCCc1c[nH]c(=O)c(C(F)(F)F)c1)N1CCN(c2ncc(C(F)(F)F)cn2)CC1` [Example 37, 5-(4-Oxo-4-(4-(5-(trifluoromethyl)pyrimidin-2-yl)piperazin-1-yl)butyl)-3-(trifluoromethyl)pyridin-2(1H)-one], the midpoint of inhibition, the IC50, lay at 900 pM.

For `O=C(c1cc(Cc2c[nH]c(=O)c(C(F)(F)F)c2)ccc1F)N1CCN(c2ncc(C(F)(F)F)cn2)CC1` [Example 40, 5-(4-Fluoro-3-(4-(5-(trifluoromethyl)pyrimidin-2-yl)piperazine-1-carbonyl)benzyl)-3-(trifluoromethyl)pyridin-2(1H)-one], the IC50 stood at 700 pM.

As for `Cc1cnc(N2CCN(C(=O)OC(C)Cc3c[nH]c(=O)c(C(F)(F)F)c3)CC2)nc1` (centres unmarked) [Example 43, 1-(6-Oxo-5-(trifluoromethyl)-1,6-dihydropyridin-3-yl)propan-2-yl 4-(5-methylpyrimidin-2-yl)piperazine-1-carboxylate], the IC50 amounted to 900 pM.

For `O=C(OCCc1c[nH]c(=O)c(C(F)(F)F)c1)N1CCN(c2ncc(C3CCCC3)cn2)CC1` [Example 119, 2-(6-Oxo-5-(trifluoromethyl)-1,6-dihydropyridin-3-yl)ethyl 4-(5-cyclopentylpyrimidin-2-yl)piperazine-1-carboxylate], inhibition was half-maximal at 240 pM (IC50).

The compound `O=C(CCO[C@@H]1CCC[C@@H]1c1c[nH]c(=O)c(C(F)(F)F)c1)N1CCN(c2ncc(C(F)(F)F)cn2)CC1` [Example 47, 5-((1R,2R)-2-(3-Oxo-3-(4-(5-(trifluoromethyl)pyrimidin-2-yl)piperazin-1-yl)propoxy)cyclopentyl)-3-(trifluoromethyl)pyridin-2(1H)-one] showed a half-inhibitory concentration (IC50) of 7220 pM.

As for `CC(Cc1c[nH]c(=O)c2ccccc12)OC(=O)N1CCN(c2ncc(C(F)(F)F)cn2)CC1` (centres unmarked) [Example 102, 1-(1-Oxo-1,2-dihydroisoquinolin-4-yl)propan-2-yl 4-(5-(trifluoromethyl)pyrimidin-2-yl)piperazine-1-carboxylate], 950 pM corresponded to half-maximal inhibition (IC50).

Turning to `C[C@@H]1CN(c2ncc(C3CC3)cn2)[C@@H](C)CN1C(=O)O[C@@H](C)Cc1c[nH]c(=O)c(C(F)(F)F)c1` [Example 173, (S)-1-(6-Oxo-5-(trifluoromethyl)-1,6-dihydropyridin-3-yl)propan-2-yl (2R,5S)-4-(5-cyclopropylpyrimidin-2-yl)-2,5-dimethylpiperazine-1-carboxylate], the IC50 was 740 pM.

Compound `CN(CCc1c[nH]c(=O)c(C(F)(F)F)c1)C(=O)N1CCN(c2ncc(C(F)(F)F)cn2)CC1` [Example 115, N-Methyl-N-(2-(6-oxo-5-(trifluoromethyl)-1,6-dihydropyridin-3-yl)ethyl)-4-(5-(trifluoromethyl)pyrimidin-2-yl)piperazine-1-carboxamide] came in with an IC50 of 1000 pM.

These data come from patent publication US20240351997A1, “NOVEL PARP7 INHIBITOR AND USE THEREOF” (SHANGHAI QILU PHARMACEUTICAL RESEARCH AND DEVELOPMENT …, priority 2021, published 2024).
